# According to ChEMBL document CHEMBL1143605, “A pharmacophore hypothesis for P-glycoprotein substrate recognition using GRIND-based 3D-QSAR” (2005):
# Tested on: MES-SA
# Assay: Inhibition of compound against MES-SA/DX5 cell line was determined using P-glycoprotein assay
# Assay type: functional, Homo sapiens
row,SMILES,log10 % Pgp inhibition vs cyclosporin A
1,Cc1nc2sccn2c(=O)c1CCN1CCC(=C(c2ccc(F)cc2)c2ccc(F)cc2)CC1 [RITANSERIN],1.69
2,OCCN1CCN(CCCN2c3ccccc3Sc3ccc(C(F)(F)F)cc32)CC1 [FLUPHENAZINE],1.4
3,OCc1cc(C(O)CNCCCCCCOCCCCc2ccccc2)ccc1O (stereo unspecified) [SALMETEROL],0.83
4,CCCCOc1cc(C(=O)OCCN(CC)CC)ccc1N [BENOXINATE],0.84
5,CSc1ccc2c(c1)N(CCC1CCCCN1C)c1ccccc1S2 (stereo unspecified) [THIORIDAZINE],1.65
6,CCc1nn(CCCN2CCN(c3cccc(Cl)c3)CC2)c(=O)n1CCOc1ccccc1 [NEFAZODONE],1.83
7,CC(C)COCC(CN(Cc1ccccc1)c1ccccc1)N1CCCC1 (stereo unspecified) [BEPRIDIL],1.56
8,CN(C)C(=O)C(CCN1CCC(O)(c2ccc(Cl)cc2)CC1)(c1ccccc1)c1ccccc1 [LOPERAMIDE],1.58
9,CC(C)(C)c1ccc(C(=O)CCCN2CCC(OC(c3ccccc3)c3ccccc3)CC2)cc1 [EBASTINE],1.76
10,COc1ccc(CCN(C)CCCC(C#N)(c2ccc(OC)c(OC)c2)C(C)C)cc1OC (stereo unspecified) [VERAPAMIL],1.63
11,CCN(CC)CC#CCOC(=O)C(O)(c1ccccc1)C1CCCCC1 (stereo unspecified) [OXYBUTYNIN],1.12
12,C[C@H]1C[C@H]2[C@@H]3CCC4=CC(=O)C=C[C@]4(C)[C@H]3C(=O)C[C@]2(C)[C@@]1(O)C(=O)CO [MEPREDNISONE],0.86
13,CC(=O)c1ccc2c(c1)N(CCCN(C)C)c1ccccc1S2 [ACEPROMAZINE],0.8
14,COc1ccc([C@@H]2Sc3ccccc3N(CCN(C)C)C(=O)[C@@H]2OC(C)=O)cc1 [DILTIAZEM],1.18
15,CC(C)(C)c1ccc(C(O)CCCN2CCC(C(O)(c3ccccc3)c3ccccc3)CC2)cc1 (stereo unspecified) [TERFENADINE],1.65
16,CCCCc1oc2ccccc2c1C(=O)c1cc(I)c(OCCN(CC)CC)c(I)c1 [AMIODARONE],1.46
17,CCN(CC)C(=O)N[C@H]1C[C@@H]2c3cccc4[nH]cc(c34)C[C@H]2N(C)C1 [TERGURIDE],1
18,CC[C@H]1CN2CCc3cc(OC)c(OC)cc3[C@@H]2C[C@@H]1C[C@H]1NCCc2cc(OC)c(OC)cc21 [EMETINE],0.88
19,CN(C)CCOC(C)(c1ccccc1)c1ccc(Cl)cc1 (stereo unspecified) [CHLORPHENOXAMINE],0.91
20,CN(C)CC/C=C1/c2ccccc2Sc2ccc(Cl)cc21 [CHLORPROTHIXENE],1.27
21,CN1CCN(CC/C=C2/c3ccccc3Sc3ccc(S(=O)(=O)N(C)C)cc32)CC1 [THIOTHIXENE],1.23
22,CCSc1ccc2c(c1)N(CCCN1CCN(C)CC1)c1ccccc1S2 [THIETHYLPERAZINE],1.26
23,CCC(COC(=O)c1cc(OC)c(OC)c(OC)c1)(c1ccccc1)N(C)C (stereo unspecified) [TRIMEBUTINE],1.75
24,C=CC1CN2CCC1CC2C(=O)c1ccnc2ccc(OC)cc12 (stereo unspecified),1.26
25,CN1CCCC(n2nc(Cc3ccc(Cl)cc3)c3ccccc3c2=O)CC1 (stereo unspecified) [AZELASTINE],1.75
26,CC(C)/N=c1\cc2n(-c3ccc(Cl)cc3)c3ccccc3nc-2cc1Nc1ccc(Cl)cc1 [CLOFAZIMINE],1.8
